# “Also recorded” adds a separate entry of the source.
# Tests used:
# T-47D = assay: NCI 60 human tumour cell line screen; format: cell-based; details: conc. 10^−5M, Breast Cancer
# From the text: (§1) Compound of example 4 was screened in the NCI 60 human tumour cell line anticancer drug screen (Shoemaker et al Nature reviews 6, 2006, 813-823).
# COLO 205 = assay: NCI 60 human tumour cell line screen; format: cell-based; details: conc. 10^−5M; COLO 205, Colon Cancer
# From the text: as §1
# M14 = assay: NCI 60 human tumour cell line screen; format: cell-based; details: conc. 10^−5M; M14, Melanoma
# From the text: as §1
# OVCAR-5 = assay: NCI 60 human tumour cell line screen; format: cell-based; details: conc. 10^−5M; OVCAR-5, Ovarian Cancer
# From the text: as §1
# RXF 393 = assay: NCI 60 human tumour cell line screen; format: cell-based; details: conc. 10^−5M; RXF 393, Renal Cancer
# From the text: as §1
# SN12C = assay: NCI 60 human tumour cell line screen; format: cell-based; details: conc. 10^−5M, Renal Cancer
# From the text: as §1
# HCC-2998 = assay: NCI 60 human tumour cell line screen; format: cell-based; details: conc. 10^−5M; HCC-2998, Colon Cancer
# From the text: as §1
# CCRF-CEM = assay: NCI 60 human tumour cell line screen; format: cell-based; details: conc. 10^−5M, Leukemia
# From the text: as §1
# UO-31 = assay: NCI 60 human tumour cell line screen; format: cell-based; details: conc. 10^−5M; UO-31, Renal Cancer
# From the text: as §1
# DU-145 = assay: NCI 60 human tumour cell line screen; format: cell-based; details: conc. 10^−5M; DU-145, Prostate Cancer
# From the text: as §1
# A498 = assay: NCI 60 human tumour cell line screen; format: cell-based; details: conc. 10^−5M; A498, Renal Cancer
# From the text: as §1
# PC-3 = assay: NCI 60 human tumour cell line screen; format: cell-based; details: conc. 10^−5M; PC-3, Prostate Cancer
# From the text: as §1
# MDA-MB-435 = assay: NCI 60 human tumour cell line screen; format: cell-based; details: conc. 10^−5M; MDA-MB-435, Melanoma
# From the text: as §1
# TK-10 = assay: NCI 60 human tumour cell line screen; format: cell-based; details: conc. 10^−5M; TK-10, Renal Cancer
# From the text: as §1
# MDA-MB-231/ATCC = assay: NCI 60 human tumour cell line screen; format: cell-based; details: conc. 10^−5M, Breast Cancer
# From the text: as §1
# NCl/ADR-RES = assay: NCI 60 human tumour cell line screen; format: cell-based; details: conc. 10^−5M, Ovarian Cancer
# From the text: as §1
# MCF7 = assay: NCI 60 human tumour cell line screen; format: cell-based; details: conc. 10^−5M; MCF7, Breast Cancer
# From the text: as §1
# SK-MEL-2 = assay: NCI 60 human tumour cell line screen; format: cell-based; details: conc. 10^−5M; SK-MEL-2, Melanoma
# From the text: as §1
# HS 578T = assay: NCI 60 human tumour cell line screen; format: cell-based; details: conc. 10^−5M, Breast Cancer
# From the text: as §1
# HCT-15 = assay: NCI 60 human tumour cell line screen; format: cell-based; details: conc. 10^−5M; HCT-15, Colon Cancer
# From the text: as §1
# U251 = assay: NCI 60 human tumour cell line screen; format: cell-based; details: conc. 10^−5M; U251, CNS Cancer
# From the text: as §1
# GTL-16 cells = assay: Soft agar anchorage-independent growth (in vitro tumorigenesis), GTL-16; format: cell-based, human
# Method: MDCK cells were grown in Dulbecco's modified Eagle's medium (DMEM) (Gibco BRL) containing 4 mM L-glutamine and supplemented with 2% (v/v) foetal bovine serum (Gibco BRL), 100 U/mL penicillin, and 100 μg/mL streptomycin. Cells were plated at a density of 1000 cells per well in 24-well microplates and allowed to settle overnight at 37° C. in a humidified atmosphere of 5% CO2 prior to treatments. MCF10A human breast cells, MDA-MB231 human breast cancer cells, GTL-16 human gastric carcinoma cells, HepG2 human hepatocellular carcinoma cells, U-87 human glioblastoma-astrocytoma cells and LLC Lewis lung carcinoma cells were grown in RPMI medium (Gibco BRL) containing 4 mM L-glutamine and supplemented with 2% (v/v) foetal bovine serum (Gibco BRL), 100 U/mL penicillin, and 100 μg/mL streptomycin and kept at 37° C. in a humidified atmosphere of 5% CO2.
# For scattering assays, MDCK cells were pre-incubated with compounds for 2 hours at 0.1-100 μM concentrations at 37° C. in a humidified atmosphere of 5% CO2, followed by 24 hr stimulation with 20 ng/ml HGF (R&D Systems), as previously described (Patane et al., Biochem Biophys Res Commun 375, 184-189, 2008). The cells were further incubated at 37° C. in an atmosphere of 5% CO2 for 24-48 hours, washed with phosphate-buffered saline (PBS; Gibco BRL), and fixed in PFA (Sigma). The quantification of scattering response was performed by counting the number of cells with scattered morphology in 30 independent colonies. The […] corresponds to the concentration of compounds leading to a 50% inhibition of Met-triggered cell scattering. Active compounds were assayed to impair scattering response also on human breast MCF10A cells following the same procedure. For survival assays, GTL-16, HepG2 and U-87 cells were cultured in serum-free media for 24 hours prior to compound addition for 48 hours. Viability was assessed with the Cell Titer Glo Luminescent Assay (Promega). For in vitro tumorigenesis, soft agar growth assays were preformed using GTL-16, HepG2, and U-87 cells, as previously described (Patane et al., Cancer Res 66, 4750-4757, 2006). […]
smiles,measurement,setting,value
"O=C(Cc1cc(C(F)(F)F)cc(C(F)(F)F)c1)N[C@@H](Cc1ccccc1)C(=O)Nc1ccc(-c2cn3c(n2)sc2ccccc23)cc1 [Example 4, (S)-2-(3,5-bis(trifluoromethyl)phenylacetamido)-3-phenyl-N-[4-(imidazo[2,1-b]benzothiazol-2-yl)phenyl]propanamide]",Growth Percent,T-47D,67.66%
same,Growth Percent,COLO 205,71.04%
same,Growth Percent,M14,30.58%
same,Growth Percent,OVCAR-5,97.36%
same,Growth Percent,RXF 393,47.02%
same,Growth Percent,SN12C,47.40%
same,Growth Percent,HCC-2998,98.28%
same,Growth Percent,CCRF-CEM,32.94%
same,Growth Percent,UO-31,67.05%
same,Growth Percent,DU-145,70.37%
same,Growth Percent,A498,120.10%
same,Growth Percent,PC-3,38.29%
same,Growth Percent,MDA-MB-435,54.92%
same,Growth Percent,TK-10,61.11%
same,Growth Percent,MDA-MB-231/ATCC,17.15%
same,Growth Percent,NCl/ADR-RES,43.07%
same,Growth Percent,MCF7,59.09%
same,Growth Percent,SK-MEL-2,45.85%
same,Growth Percent,HS 578T,16.75%
same,Growth Percent,HCT-15,44.16%
same,Growth Percent,U251,34.24%
same,Met-triggered anchorage-independent growth,"GTL-16 cells; GTL-16 cells, dose dependent, listed as XVI",severely reduced; also recorded: severely affected
same,IC50,"GTL-16 cells; Homo sapiens, soft agar growth, GTL-16",811 nM
